{
  "source": "the supplement of paper PMC9663587",
  "key": {"[1]": {"compound": "C=CC(=O)Nc1ccc(C(=O)Nc2[nH]nc3c2CN(C(=O)N[C@H](CN(C)C)c2ccccc2)C3(C)C)cc1 [YKL-5-124]", "assay": "GR value, 72 h; higher = faster growth (1 = untreated, <0 = killing);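 also: breast cancer and non-malignant breast epithelial lines, nine half-log doses, viable cells counted by Hoechst and LIVE/DEAD dye imaging versus time-zero plates and DMSO controls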"}, "[2]": {"compound": "T1, CN(C)C/C=C/C(=O)Nc1ccc(C(=O)N2CCC[C@@H](Nc3ncc(Cl)c(-c4c[nH]c5ccccc45)n3)C2)cc1 [THZ531]", "assay": "GR value, 72 h; higher = faster growth (1 = untreated, <0 = killing)"}, "[3]": {"compound": "CC(=O)c1c(C)c2cnc(Nc3ccc(N4CCNCC4)cn3)nc2n(C2CCCC2)c1=O", "assay": "GR value, 72 h; higher = faster growth (1 = untreated, <0 = killing)"}, "[4]": {"compound": "CCc1cnn2c(NCc3ccc[n+]([O-])c3)cc(N3CCCC[C@H]3CCO)nc12", "assay": "GR value, 72 h; higher = faster growth (1 = untreated, <0 = killing)"}, "[5]": {"compound": "Cc1cc(Nc2ncc(Cl)c(Nc3ccccc3S(=O)(=O)C(C)C)n2)c(OC(C)C)cc1C1CCNCC1 [Ceritinib/LDK378]"}, "[6]": {"compound": "CNCc1ccc(-c2[nH]c3cc(F)cc4c3c2CCNC4=O)cc1 [Rucaparib]"}, "[7]": {"compound": "T1, THZ531"}, "[8]": {"compound": "CN1CCN(C(=O)c2ccc3cc(CCNc4ncnc5ccc(C#N)cc45)ccc3c2)CC1 [senexin b]"}, "[9]": {"compound": "O=C1NC(=O)[C@@H](c2cn3c4c(cccc24)CCC3)[C@@H]1c1c[nH]c2ccccc12 [Tivantinib/ARQ197]"}, "[10]": {"compound": "CS(=O)(=O)N1CCN(Cc2cc3nc(-c4cccc5[nH]ncc45)nc(N4CCOCC4)c3s2)CC1 [Pictilisib/GDC0941]"}, "[11]": {"compound": "CN(C)C/C=C/C(=O)Nc1ccc(O[C@@H]2CCC[C@@H](Nc3ncc(Cl)c(-c4c[nH]c5ccccc45)n3)C2)cc1 [BSJ-01-175]"}, "[12]": {"compound": "C[C@@H]1COCCN1c1cc(C2([S@](C)(=N)=O)CC2)nc(-c2cc[nH]c3nccc2-3)n1 [AZD6738]"}, "[13]": {"compound": "CC(=O)O[C@H]1C(=O)[C@@]2(C)[C@H]([C@H](OC(=O)c3ccccc3)[C@]3(O)C[C@H](OC(=O)[C@H](O)[C@@H](NC(=O)c4ccccc4)c4ccccc4)C(C)=C1C3(C)C)[C@]1(OC(C)=O)CO[C@@H]1C[C@@H]2O [Paclitaxel]"}, "[14]": {"compound": "COc1cc2c(Oc3ccc4[nH]c(C)cc4c3F)ncnc2cc1OCCCN1CCCC1 [Cediranib/AZD2171]"}},
  "data": [
    {"cell line": "MDAMB231", "values": [
      {"measurement": "GR value", "setting": "[1]; 0.3162 µM", "value": 0.0485, "unit": "GR"},
      {"measurement": "GR value", "setting": "[1]; 1 µM", "value": 0.0611, "unit": "GR"},
      {"measurement": "GR value", "setting": "[1]; 3.162 µM", "value": 0.0322, "unit": "GR"},
      {"measurement": "GR value", "setting": "[1]; 10 µM", "value": -0.182, "unit": "GR"},
      {"measurement": "GR value", "setting": "[2]; 0.0001 µM", "value": 1.03, "unit": "GR"},
      {"measurement": "GR value", "setting": "[2]; 0.0003162 µM", "value": 0.974, "unit": "GR"},
      {"measurement": "GR value", "setting": "[2]; 0.001 µM", "value": 0.936, "unit": "GR"},
      {"measurement": "GR value", "setting": "[2]; 0.003162 µM", "value": 1.02, "unit": "GR"},
      {"measurement": "GR value", "setting": "[2]; 0.01 µM", "value": 0.939, "unit": "GR"},
      {"measurement": "GR value", "setting": "[2]; 0.03162 µM", "value": 0.975, "unit": "GR"},
      {"measurement": "GR value", "setting": "[2]; 0.1 µM", "value": 0.751, "unit": "GR"},
      {"measurement": "GR value", "setting": "[2]; 0.3162 µM", "value": 0.443, "unit": "GR"},
      {"measurement": "GR value", "setting": "[2]; 1 µM", "value": -0.275, "unit": "GR"},
      {"measurement": "GR value", "setting": "[3]; 0.0003162 µM", "value": 1.08, "unit": "GR"},
      {"measurement": "GR value", "setting": "[3]; 0.001 µM", "value": 1.02, "unit": "GR"},
      {"measurement": "GR value", "setting": "[3]; 0.003162 µM", "value": 0.921, "unit": "GR"},
      {"measurement": "GR value", "setting": "[3]; 0.01 µM", "value": 0.824, "unit": "GR"},
      {"measurement": "GR value", "setting": "[3]; 0.03162 µM", "value": 0.637, "unit": "GR"},
      {"measurement": "GR value", "setting": "[3]; 0.1 µM", "value": 0.494, "unit": "GR"},
      {"measurement": "GR value", "setting": "[3]; 0.3162 µM", "value": 0.418, "unit": "GR"},
      {"measurement": "GR value", "setting": "[3]; 1 µM", "value": 0.288, "unit": "GR"},
      {"measurement": "GR value", "setting": "[3]; 3.162 µM", "value": 0.202, "unit": "GR"},
      {"measurement": "GR value", "setting": "[4]; 0.0001 µM", "value": 0.921, "unit": "GR"},
      {"measurement": "GR value", "setting": "[4]; 0.0003162 µM", "value": 0.995, "unit": "GR"},
      {"measurement": "GR value", "setting": "[4]; 0.001 µM", "value": 0.966, "unit": "GR"},
      {"measurement": "GR value", "setting": "[4]; 0.003162 µM", "value": 0.93, "unit": "GR"},
      {"measurement": "GR value", "setting": "[4]; 0.01 µM", "value": 0.51, "unit": "GR"},
      {"measurement": "GR value", "setting": "[4]; 0.03162 µM", "value": -0.288, "unit": "GR"},
      {"measurement": "GR value", "setting": "[4]; 0.1 µM", "value": -0.361, "unit": "GR"},
      {"measurement": "GR value", "setting": "[4]; 0.3162 µM", "value": -0.372, "unit": "GR"},
      {"measurement": "GR value", "setting": "[4]; 1 µM", "value": -0.426, "unit": "GR"},
      {"measurement": "GR50, 72 h", "setting": "[5]", "value": 0.866, "unit": "µM"},
      {"measurement": "GR50, 72 h", "setting": "[6]", "value": "> 10", "unit": "µM"},
      {"measurement": "GR50, 72 h", "setting": "[7]", "value": 0.245, "unit": "µM"},
      {"measurement": "GR50, 72 h", "setting": "[8]", "value": "> 10", "unit": "µM"},
      {"measurement": "GR50, 72 h", "setting": "[9]", "value": 0.416, "unit": "µM"},
      {"measurement": "GR50, 72 h", "setting": "[10]", "value": 5.32, "unit": "µM"},
      {"measurement": "GR50, 72 h", "setting": "[11]", "value": 0.0118, "unit": "µM"},
      {"measurement": "GR50, 72 h", "setting": "[12]", "value": 8.89, "unit": "µM"},
      {"measurement": "GR50, 72 h", "setting": "[13]", "value": 0.00232, "unit": "µM"},
      {"measurement": "GR50, 72 h", "setting": "[14]", "value": 5.1, "unit": "µM"}
    ]}
  ]
}
